From patent publication US20250381198A1 (Melt Pharmaceuticals, Inc., priority 2024, published 2025)

Legend:
[1] = Phase 1 crossover relative bioavailability study: plasma pharmacokinetics of midazolam, 1-hydroxymidazolam, ketamine and norketamine; details: Treatment C: midazolam IV 3.5 mg, fasted
Protocol: PK analysis was performed using noncompartmental methods in Phoenix WinNonlin® (Version 8.1, Certara, L.P.) in conjunction with the internet-accessible implementation of the Pharsight® Knowledgebase Server™ (PKSO; Version 4.0.4, Certara, L.P). PKSO provides protected and structured storage, audit trails, and version control for study data, analyses, and related files, supporting 21 CFR Part 11 compliance. The analysis was performed in accordance with the Statistical Analysis Plan (Version 1.0, 5 Jan. 2021).
During the PK analysis, concentrations below the limit of quantitation (BLQ) up to the time of the first quantifiable concentration were treated as zero. Embedded (values between 2 quantifiable concentrations) and terminal BLQ concentrations were treated as “missing”. Calculation of the PK characteristics were based on actual elapsed times [h] (relative to time of dose).
All PK analyses were performed on the data from the PK Analysis Population. […] The ANOVA model included factors for sequence, subject within sequence, treatment, and period.

[2] = tested on: subjects undergoing cataract extraction with lens replacement (CELR); assay: Phase 2: treatment-emergent ocular adverse events and serious adverse events; details: for Cataract operation complication, % / Conjunctivitis bacterial, % / Corneal abrasion, % / Corneal oedema, % / Endophthalmitis, % / Eye disorders, % / Eye pain, % / Foreign body sensation in eyes, % / General disorders and administration site conditions, % / Infections and infestations, % / Injury, poisoning and procedural complications, % / Intraocular pressure increased, % / Investigations, % / Ocular hypertension, % / Pain, % / Paracentesis eye, % / Procedural pain, % / Subjects with Any Treatment-Emergent Ocular AEs, % / Vision blurred, %: Full Analysis Set
Protocol: The study eye (TABLE 32) non-study eye (TABLE 33), or either eye (TABLE 34) was assessed. TEAES were defined as events that started on or after the date of the study drug administration through the end of Visit 4 or early withdrawal. Subjects with one or more adverse event within a level of Medical Dictionary for Regulatory Activities (MedDRA) were counted only once in that level. […] TEAEs of special interest by system, organ class, and preferred term are provided in TABLE 35 for the full analysis set.

[3] = tested on: subjects undergoing cataract extraction with lens replacement (CELR); assay: Phase 3: Ramsay sedation scale (RSS) scores; assay type: in vivo, human; details: ITT analysis set
Description: The RSS scores are summarized for: the baseline, just prior to the start of surgery, the minimum and maximum preoperative score, the minimum and maximum intraoperative score, the minimum and maximum postoperative score, and the maximum overall score.

[4] = tested on: subjects undergoing cataract extraction with lens replacement (CELR); assay: Phase 3: surgery completion; assay type: in vivo, human
Description: A plot of the Kaplan-Meier Curve for time to achieve preoperative target sedation level for the all-treated analysis set is provided in FIG. 5.

[5] = Just prior to the start of surgery

## Cc1ncc2n1-c1ccc(Cl)cc1C(c1ccccc1F)=NC2 [Midazolam, 8-chloro-6-(2-fluorophenyl)-1-methyl-4H-imidazo[1,5-a][1,4]benzodiazepine]
[1]
  Midazolam AUCExtrap, mean: 5.58%
  Midazolam Clast, mean: 0.963 ng/mL
[2]; Either Eye
  Cataract operation complication, %: (0) %
  Conjunctivitis bacterial, %: (0) %
  Corneal abrasion, %: (0) %
  Corneal oedema, %: (0) %
  Endophthalmitis, %: (0) %
  Eye disorders, %: (5.7) %
  Eye pain, %: (3.4) %
  Foreign body sensation in eyes, %: (0) %
  General disorders and administration site conditions, %: (0) %
  Infections and infestations, %: (0) %
  Injury, poisoning and procedural complications, %: (1.1) %
  Intraocular pressure increased, %: (2.3) %
  Investigations, %: (2.3) %
  Ocular hypertension, %: (1.1) %
  Pain, %: (0) %
  Paracentesis eye, %: (0) %
  Procedural pain, %: (1.1) %
  Subjects with Any Treatment-Emergent Ocular AEs, %: (9.2) %
  Vision blurred, %: (1.1) %
[2]; Non-Study Eye (as printed in Table 33)
  Paracentesis eye, %: (0) %
[2]; Non-Study Eye
  Conjunctivitis bacterial, %: (0) %
  Eye disorders, %: (1.1) %
  Eye pain, %: (0) %
  Infections and infestations, %: (0) %
  Subjects with Any Treatment-Emergent Ocular AEs, %: (1.1) %
  Vision blurred, %: (1.1) %
[2]; Study Eye
  Cataract operation complication, %: (0) %
  Corneal abrasion, %: (0) %
  Corneal oedema, %: (0) %
  Endophthalmitis, %: (0) %
  Eye disorders, %: (4.6) %
  Eye pain, %: (3.4) %
  Foreign body sensation in eyes, %: (0) %
  General disorders and administration site conditions, %: (0) %
  Infections and infestations, %: (0) %
  Injury, poisoning and procedural complications, %: (1.1) %
  Intraocular pressure increased, %: (2.3) %
  Investigations, %: (2.3) %
  Ocular hypertension, %: (1.1) %
  Pain, %: (0) %
  Procedural pain, %: (1.1) %
  Subjects with Any Treatment-Emergent Ocular AEs, %: (8.0) %
[2]; overall, MELT-300, midazolam alone, ketamine alone
  Subjects who experienced a treatment-emergent ocular adverse event, study eye: 8.0%
[3]; Baseline
  Ramsay sedation scale score 1, number of subjects: 89
  Ramsay sedation scale score 1, percent of subjects (in parentheses): (100.0)
  Ramsay sedation scale score 2-3, number of subjects: 0
  Ramsay sedation scale score 4, number of subjects: 0
  Ramsay sedation scale score 5+, number of subjects: 0
  Ramsay sedation scale: Prior rescue sedation medication given, number of subjects: 0
[3]; [5]
  Ramsay sedation scale score 1, number of subjects: 7
  Ramsay sedation scale score 1, percent of subjects (in parentheses): (7.9)
  Ramsay sedation scale score 2-3, number of subjects: 65
  Ramsay sedation scale score 2-3, percent of subjects (in parentheses): (73.0)
  Ramsay sedation scale score 4, number of subjects: 0
  Ramsay sedation scale score 5+, number of subjects: 0
  Ramsay sedation scale: Prior rescue sedation medication given, number of subjects: 17
  Ramsay sedation scale: Prior rescue sedation medication given, percent of subjects (in parentheses): (19.1)
[3]; Maximum intraoperative score
  Ramsay sedation scale score 1, number of subjects: 4
  Ramsay sedation scale score 1, percent of subjects (in parentheses): (4.5)
  Ramsay sedation scale score 2-3, number of subjects: 60
  Ramsay sedation scale score 2-3, percent of subjects (in parentheses): (67.4)
  Ramsay sedation scale score 4, number of subjects: 0
  Ramsay sedation scale score 5+, number of subjects: 0
  Ramsay sedation scale: Prior rescue sedation medication given, number of subjects: 25
  Ramsay sedation scale: Prior rescue sedation medication given, percent of subjects (in parentheses): (28.1)
[3]; Maximum postoperative score
  Ramsay sedation scale score 1, number of subjects: 45
  Ramsay sedation scale score 1, percent of subjects (in parentheses): (50.6)
  Ramsay sedation scale score 2-3, number of subjects: 14
  Ramsay sedation scale score 2-3, percent of subjects (in parentheses): (15.7)
  Ramsay sedation scale score 4, number of subjects: 0
  Ramsay sedation scale score 5+, number of subjects: 0
  Ramsay sedation scale: Prior rescue sedation medication given, number of subjects: 29
  Ramsay sedation scale: Prior rescue sedation medication given, percent of subjects (in parentheses): (32.6)
[3]; Maximum preoperative score
  Ramsay sedation scale score 1, number of subjects: 22
  Ramsay sedation scale score 1, percent of subjects (in parentheses): (24.7)
  Ramsay sedation scale score 2-3, number of subjects: 67
  Ramsay sedation scale score 2-3, percent of subjects (in parentheses): (75.3)
  Ramsay sedation scale score 4, number of subjects: 0
  Ramsay sedation scale score 5+, number of subjects: 0
  Ramsay sedation scale: Prior rescue sedation medication given, number of subjects: 0
[3]; Maximum score overall
  Ramsay sedation scale score 1, number of subjects: 22
  Ramsay sedation scale score 1, percent of subjects (in parentheses): (24.7)
  Ramsay sedation scale score 2-3, number of subjects: 67
  Ramsay sedation scale score 2-3, percent of subjects (in parentheses): (75.3)
  Ramsay sedation scale score 4, number of subjects: 0
  Ramsay sedation scale score 5+, number of subjects: 0
  Ramsay sedation scale: Prior rescue sedation medication given, number of subjects: 0
[3]; Minimum intraoperative score
  Ramsay sedation scale score 1, number of subjects: 4
  Ramsay sedation scale score 1, percent of subjects (in parentheses): (4.5)
  Ramsay sedation scale score 2-3, number of subjects: 60
  Ramsay sedation scale score 2-3, percent of subjects (in parentheses): (67.4)
  Ramsay sedation scale score 4, number of subjects: 0
  Ramsay sedation scale score 5+, number of subjects: 0
  Ramsay sedation scale: Prior rescue sedation medication given, number of subjects: 25
  Ramsay sedation scale: Prior rescue sedation medication given, percent of subjects (in parentheses): (28.1)
[3]; Minimum postoperative score
  Ramsay sedation scale score 1, number of subjects: 49
  Ramsay sedation scale score 1, percent of subjects (in parentheses): (55.1)
  Ramsay sedation scale score 2-3, number of subjects: 10
  Ramsay sedation scale score 2-3, percent of subjects (in parentheses): (11.2)
  Ramsay sedation scale score 4, number of subjects: 0
  Ramsay sedation scale score 5+, number of subjects: 0
  Ramsay sedation scale: Prior rescue sedation medication given, number of subjects: 29
  Ramsay sedation scale: Prior rescue sedation medication given, percent of subjects (in parentheses): (32.6)
[4]; ITT Analysis Set
  Completed surgery without intervention due to pain or anxiety: 89 (100.0) n (%)
  Completed the surgery: 89 (100.0) n (%)
[4]; ITT analysis set
  Subjects who completed the surgery: 100.0%
[4]; Summary of Disposition, value in parentheses, percent of ITT set
  Subjects Completed Surgery, %: (100)
